For one compound, cell death results are on record in US8592419B2, “Ceramides and apoptosis-signaling ligand” (MUSC Foundation for Research Development, priority 2004, dated 2013).

This experiment concerns five different PCa cell lines. The experiment in a line: MTS cell viability assay, LCL204 treatments. As to conditions: 24 hours treatment. It is filed as cell-based, human. On the procedure: Cell lines. The human PCa cell lines DU145, LNCaP, DuPro, and PC-3 were purchased from ATCC (Manassas, Va., USA), and PPC-1 cells were from Dr. Yi Lu at the University of Tennessee (Memphis, Tenn.). All cells were cultured in RPMI 1640 (Mediatech Inc.; Herndon, Va., USA) supplemented with 10% heat-inactivated BGS (Hyclone; Logan, Utah, USA). Cells were maintained in 5% CO2 at 37° C. All experiments were performed in RPMI 1640 supplemented with 2% heat-inactivated BGS.
MTS cytotoxicity assays for LCL204 treatments. Cell viability was determined using the CellTiter 96 AQueous One Solution Cell Proliferation Assay (Promega; Madison, Wis., USA). 1×10^4 cells per well were seeded in 96-well plates overnight. The next day media was removed and replaced with either 100 μl media with vehicle control or media containing LCL204 at desired concentrations. Assays were carried out according to manufacturer's instruction as previously described (60). For experiments using enzyme inhibitors and LCL204, media was removed and replaced with 50 μl media containing vehicle only or indicated inhibitor. Cells were pretreated 1 hour at 37° C. before adding 50 μl media containing vehicle, inhibitor only, LCL204 only (2× concentration), or a combination. The remainder of the assay was carried out as described above.

On to `CCCCCCCCCCCCCCN[C@H](CO)[C@H](O)c1ccc([N+](=O)[O-])cc1.Cl` [LCL204, (1R,2R) D-threo-2-N-Tetradecylamino-1-(4′-nitrophenyl)-1,3-propandiol hydrochloride], for which the cell death entry was “concentration-dependent cell death in the micromolar range”.
